Measurements as given in patent US7442541B2, “β-glucan-containing fat and oil composition and novel microorganism capable of producing β-glucan” (Adeka Corporation, priority 2002, dated 2008).

Legend:
[1] = system: ADK-24; test: Cycloheximide resistance test; format: cell-based; conditions: strain ADK-24, YM agar, 26° C., 10 days
Description: (§1) The strains obtained by the screening in Test Examples 1 and 2 and IFO-4466, IFO-6353, and IFO-7757 purchased from Institute for Fermentation, Osaka, i.e., were tested for cycloheximide resistance as follows. Each strain was grown on YM agar medium (Difco) at 26° C. for 5 days. YM agar media (Difco) containing 5, 10, 20, 40, and 80 μg/ml of cycloheximide were prepared. The grown strain was inoculated into each of the cycloheximide-containing media using a sterile toothpick and incubated at 26° C. for 10 days. The plates were examined for colonies. The diameters of the colonies, if formed, were measured.

[2] = system: ADK-28; test: Cycloheximide resistance test; format: cell-based; conditions: strain ADK-28, YM agar, 26° C., 10 days
Description: as §1

[3] = system: ADK-5; test: Cycloheximide resistance test; format: cell-based; conditions: strain ADK-5, YM agar, 26° C., 10 days
Description: as §1

[4] = system: ADK-6; test: Cycloheximide resistance test; format: cell-based; conditions: strain ADK-6, YM agar, 26° C., 10 days
Description: as §1

[5] = system: ADK-17; test: Cycloheximide resistance test; format: cell-based; conditions: strain ADK-17, YM agar, 26° C., 10 days
Description: as §1

[6] = system: ADK-1; test: Cycloheximide resistance test; format: cell-based; conditions: strain ADK-1, YM agar, 26° C., 10 days
Description: as §1

[7] = system: ADK-31; test: Cycloheximide resistance test; format: cell-based; conditions: strain ADK-31, YM agar, 26° C., 10 days
Description: as §1

[8] = system: ADK-8; test: Cycloheximide resistance test; format: cell-based; conditions: strain ADK-8, YM agar, 26° C., 10 days
Description: as §1

[9] = system: ADK-42; test: Cycloheximide resistance test; format: cell-based; conditions: strain ADK-42, YM agar, 26° C., 10 days
Description: as §1

[10] = system: IFO-4466, IFO-6353, and IFO-7757; test: Growth of reference strains on solid medium containing cycloheximide; format: cell-based, Aureobasidium pullulans; conditions: solid medium (agar plate), 26° C., 10 days
Description: This is the case that the formation of a colony of 0.1 mm or greater, preferably 0.3 mm or greater, still preferably 0.5 mm or greater in diameter as a result of fungous proliferation is observed on a solid medium having the cycloheximide concentration that IFO strains is not allowed to grow after a strain is inoculated on the solid medium (agar plate) containing cycloheximide and cultured at 26° C. for 10 days. Usually, these IFO strains are not allowed to grow on a solid medium containing cycloheximide at concentrations of 20 μg/ml or higher.

[11] = system: IFO-6353; test: Cycloheximide resistance test; format: cell-based, Aureobasidium pullulans; conditions: strain IFO-6353, YM agar, 26° C., 10 days
Description: as §1

[12] = system: ADK-71; test: Cycloheximide resistance test; format: cell-based, Aureobasidium pullulans; conditions: strain ADK-71, YM agar, 26° C., 10 days
Description: as §1

[13] = system: IFO-7757; test: Cycloheximide resistance test; format: cell-based, Aureobasidium pullulans; conditions: strain IFO-7757, YM agar, 26° C., 10 days
Description: as §1

[14] = system: ADK-34; test: Cycloheximide resistance test; format: cell-based, Aureobasidium pullulans; conditions: strain ADK-34, YM agar, 26° C., 10 days
Description: as §1

[15] = system: ADK-82; test: Cycloheximide resistance test; format: cell-based, Aureobasidium pullulans; conditions: strain ADK-82, YM agar, 26° C., 10 days
Description: as §1

[16] = system: ADK-77; test: Cycloheximide resistance test; format: cell-based, Aureobasidium pullulans; conditions: strain ADK-77, YM agar, 26° C., 10 days
Description: as §1

[17] = system: IFO-4466; test: Cycloheximide resistance test; format: cell-based, Aureobasidium pullulans; conditions: strain IFO-4466, YM agar, 26° C., 10 days
Description: as §1

C[C@@H]1C[C@@H]([C@H](O)CC2CC(=O)NC(=O)C2)C(=O)[C@@H](C)C1 [Cycloheximide, cycloheximide]
Colony diameter ([1]; cycloheximide 5 μg/ml): 9.1 mm
Colony diameter ([1]; cycloheximide 10 μg/ml): 2.5 mm
Colony diameter ([1]; cycloheximide 20 μg/ml): 0 mm
Colony diameter ([1]; cycloheximide 40 μg/ml): 0 mm
Colony diameter ([1]; cycloheximide 80 μg/ml): 0 mm
Colony diameter ([2]; cycloheximide 5 μg/ml): 7.1 mm
Colony diameter ([2]; cycloheximide 10 μg/ml): 0 mm
Colony diameter ([2]; cycloheximide 20 μg/ml): 0 mm
Colony diameter ([2]; cycloheximide 40 μg/ml): 0 mm
Colony diameter ([2]; cycloheximide 80 μg/ml): 0 mm
Colony diameter ([3]; cycloheximide 5 μg/ml): 6.3 mm
Colony diameter ([3]; cycloheximide 10 μg/ml): 0 mm
Colony diameter ([3]; cycloheximide 20 μg/ml): 0 mm
Colony diameter ([3]; cycloheximide 40 μg/ml): 0 mm
Colony diameter ([3]; cycloheximide 80 μg/ml): 0 mm
Colony diameter ([4]; cycloheximide 5 μg/ml): 7.1 mm
Colony diameter ([4]; cycloheximide 10 μg/ml): 0 mm
Colony diameter ([4]; cycloheximide 20 μg/ml): 0 mm
Colony diameter ([4]; cycloheximide 40 μg/ml): 0 mm
Colony diameter ([4]; cycloheximide 80 μg/ml): 0 mm
Colony diameter ([5]; cycloheximide 5 μg/ml): 6.7 mm
Colony diameter ([5]; cycloheximide 10 μg/ml): 0 mm
Colony diameter ([5]; cycloheximide 20 μg/ml): 0 mm
Colony diameter ([5]; cycloheximide 40 μg/ml): 0 mm
Colony diameter ([5]; cycloheximide 80 μg/ml): 0 mm
Colony diameter ([6]; cycloheximide 5 μg/ml): 0 mm
Colony diameter ([6]; cycloheximide 10 μg/ml): 0 mm
Colony diameter ([6]; cycloheximide 20 μg/ml): 0 mm
Colony diameter ([6]; cycloheximide 40 μg/ml): 0 mm
Colony diameter ([6]; cycloheximide 80 μg/ml): 0 mm
Colony diameter ([7]; cycloheximide 5 μg/ml): 6.3 mm
Colony diameter ([7]; cycloheximide 10 μg/ml): 1.7 mm
Colony diameter ([7]; cycloheximide 20 μg/ml): 0 mm
Colony diameter ([7]; cycloheximide 40 μg/ml): 0 mm
Colony diameter ([7]; cycloheximide 80 μg/ml): 0 mm
Colony diameter ([8]; cycloheximide 5 μg/ml): 7.7 mm
Colony diameter ([8]; cycloheximide 10 μg/ml): 1.1 mm
Colony diameter ([8]; cycloheximide 20 μg/ml): 0 mm
Colony diameter ([8]; cycloheximide 40 μg/ml): 0 mm
Colony diameter ([8]; cycloheximide 80 μg/ml): 0 mm
Colony diameter ([9]; cycloheximide 5 μg/ml): 2.4 mm
Colony diameter ([9]; cycloheximide 10 μg/ml): 0 mm
Colony diameter ([9]; cycloheximide 20 μg/ml): 0 mm
Colony diameter ([9]; cycloheximide 40 μg/ml): 0 mm
Colony diameter ([9]; cycloheximide 80 μg/ml): 0 mm
cycloheximide concentration at which IFO strains are not allowed to grow [10]: ≥ 20 µg/mL
Colony diameter ([11]; cycloheximide 5 μg/ml): 7.3 mm
Colony diameter ([11]; cycloheximide 10 μg/ml): 2.3 mm
Colony diameter ([11]; cycloheximide 20 μg/ml): 0 mm
Colony diameter ([11]; cycloheximide 40 μg/ml): 0 mm
Colony diameter ([11]; cycloheximide 80 μg/ml): 0 mm
Colony diameter ([12]; cycloheximide 5 μg/ml): 7.6 mm
Colony diameter ([12]; cycloheximide 10 μg/ml): 4.1 mm
Colony diameter ([12]; cycloheximide 20 μg/ml): 1.8 mm
Colony diameter ([12]; cycloheximide 40 μg/ml): 1.2 mm
Colony diameter ([12]; cycloheximide 80 μg/ml): 0 mm
Colony diameter ([13]; cycloheximide 5 μg/ml): 0 mm
Colony diameter ([13]; cycloheximide 10 μg/ml): 0 mm
Colony diameter ([13]; cycloheximide 20 μg/ml): 0 mm
Colony diameter ([13]; cycloheximide 40 μg/ml): 0 mm
Colony diameter ([13]; cycloheximide 80 μg/ml): 0 mm
Colony diameter ([14]; cycloheximide 5 μg/ml): 13.6 mm
Colony diameter ([14]; cycloheximide 10 μg/ml): 6.7 mm
Colony diameter ([14]; cycloheximide 20 μg/ml): 5.1 mm
Colony diameter ([14]; cycloheximide 40 μg/ml): 3.7 mm
Colony diameter ([14]; cycloheximide 80 μg/ml): 0.5 mm
Colony diameter ([15]; cycloheximide 5 μg/ml): 10.4 mm
Colony diameter ([15]; cycloheximide 10 μg/ml): 2.9 mm
Colony diameter ([15]; cycloheximide 20 μg/ml): 1.5 mm
Colony diameter ([15]; cycloheximide 40 μg/ml): 1.2 mm
Colony diameter ([15]; cycloheximide 80 μg/ml): 0 mm
Colony diameter ([16]; cycloheximide 5 μg/ml): 9.5 mm
Colony diameter ([16]; cycloheximide 10 μg/ml): 4.1 mm
Colony diameter ([16]; cycloheximide 20 μg/ml): 0.8 mm
Colony diameter ([16]; cycloheximide 40 μg/ml): 0 mm
Colony diameter ([16]; cycloheximide 80 μg/ml): 0 mm
Colony diameter ([17]; cycloheximide 5 μg/ml): 4.4 mm
Colony diameter ([17]; cycloheximide 10 μg/ml): 0 mm
Colony diameter ([17]; cycloheximide 20 μg/ml): 0 mm
Colony diameter ([17]; cycloheximide 40 μg/ml): 0 mm
Colony diameter ([17]; cycloheximide 80 μg/ml): 0 mm
